According to patent US8044211B2 (Chroma Therapeutics Ltd., priority 2006, dated 2011):

Legend:
p38 MAP Kinase a = target: T1, p38 MAP Kinase a (Homo sapiens, UniProt Q16539); test: p38 MAP Kinase activity, radiometric filter-binding assay (Upstate); type: biochemical; conditions: IC50 range; ATP at or close to Km; read-out: Inhibitor activity versus p38 MAPKa
T1 construct: purchased Upstate (Dundee UK)
Outline: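 Human p38 MAP kinase α (5-10 mU) with 0.33 mg/mL myelin basic protein, 25 mM Tris pH 7.5, 0.002 mM EGTA, 10 mM Mg acetate and [γ-33P]ATP at or near Km; 40 min at RT. Phosphoric acid stop, P30 filter binding and scintillation counting; IC50 from 9-step ⅓-log dilutions from 10 μM top concentration, duplicates.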

THP-1 TNFα release = test: LPS-stimulation of THP-1 cells, TNF-α by ELISA; type: cell-based; conditions: Homo sapiens, THP-1; IC50 range; LPS 1 μg/ml, 6 hrs; read-out: Inhibitor activity versus THP-1 TNFα release
Outline: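 THP-1 cells (4×10^4/well) rested 16 h, preincubated 2 h with inhibitor, then stimulated with 1 μg/ml E. coli LPS for 6 h at 37 °C, 5% CO2. TNF-α quantified in cell-free supernatants by sandwich ELISA.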

[1] = tested on: human whole blood TNFα release; test: LPS-stimulation of human whole blood, TNF-α by ELISA; type: cell-based; conditions: IC50 range, LPS 100 ng/ml, 6 hrs, read-out: Inhibitor activity versus human whole blood TNFα release
Procedure: Whole blood was taken by venous puncture using heparinised vacutainers (Becton Dickinson) and diluted in an equal volume of RPMI 1640 tissue culture media (Sigma). 100 μl was plated in V-bottomed 96 well tissue culture treated plates. 2 hrs after the addition of the inhibitor in 100 μl of RPMI 1640 media, the blood was stimulated with LPS (E. coli strain 005:B5, Sigma) at a final concentration of 100 ng/ml and incubated at 37° C. in 5% CO2 for 6 hrs. TNF-α levels were measured from cell-free supernatants by sandwich ELISA (R&D Systems #QTA00B)

T1 sequence (Q16539 whole entry): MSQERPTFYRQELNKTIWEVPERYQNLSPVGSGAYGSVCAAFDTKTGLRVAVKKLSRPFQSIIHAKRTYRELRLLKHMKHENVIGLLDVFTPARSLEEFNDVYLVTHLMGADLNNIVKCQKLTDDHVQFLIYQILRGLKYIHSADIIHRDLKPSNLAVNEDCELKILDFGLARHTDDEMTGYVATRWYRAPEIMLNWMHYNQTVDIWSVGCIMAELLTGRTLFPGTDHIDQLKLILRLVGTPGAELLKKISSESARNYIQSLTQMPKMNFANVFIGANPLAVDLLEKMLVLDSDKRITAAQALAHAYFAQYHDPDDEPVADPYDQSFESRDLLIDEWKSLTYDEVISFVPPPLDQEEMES

| SMILES | IC50 (p38 MAP Kinase a) [nM] | IC50 (THP-1 TNFα release) [nM] | IC50 [1] [nM] |
| --- | --- | --- | --- |
| Nc1c(C(=O)c2ccc(F)cc2F)ccc(=O)n1-c1c(F)cc(OCCCN[C@@H](C(=O)OC2Cc3ccccc3C2)c2ccccc2)cc1F [Example 41, 2,3-dihydro-1H-inden-2-yl (2R)-[(3-{4-[6-amino-5-(2,4-difluorobenzoyl)-2-oxopyridin-1(2H)-yl]-3,5-difluorophenoxy}propyl)amino](phenyl)acetate] | 100 to 1000 | < 100 | > 1000 |
| CC(C)C[C@H](NCCCOc1cc(F)c(-n2c(N)c(C(=O)c3ccc(F)cc3F)ccc2=O)c(F)c1)C(=O)OCCN1CCOCC1 [Example 47, 2-Morpholin-4-ylethyl N-(3-{4-[6-amino-5-(2,4-difluorobenzoyl)-2-oxopyridin-1(2H)-yl]-3,5-difluorophenoxy}propyl)-L-leucinate] | < 100 | < 100 | 100 to 1000 |
| Nc1c(C(=O)c2ccc(F)cc2F)ccc(=O)n1-c1c(F)cc(OCCCN[C@H](C(=O)OC2CCCC2)C2CCCCC2)cc1F [Example 48, Cyclopentyl(2S)-[(3-{4-[6-amino-5-(2,4-difluorobenzoyl)-2-oxopyridin-1(2H)-yl]-3,5-difluorophenoxy}propyl)amino](cyclohexyl)acetate] | < 100 | < 100 | > 1000 |
| CC(C)(C)OC(=O)[C@@H](NCCCOc1cc(F)c(-n2c(N)c(C(=O)c3ccc(F)cc3F)ccc2=O)c(F)c1)C1CCCCC1 [Example 49, tert-Butyl (2S)-[(3-{4-[6-amino-5-(2,4-difluorobenzoyl)-2-oxopyridin-1(2H)-yl]-3,5-difluorophenoxy}propyl)amino](cyclohexyl)acetate] | < 100 | 100 to 1000 | > 1000 |
| Cc1cc(C(=O)c2ccc(=O)n(-c3ccc(OCCCN[C@@H](CC(C)C)C(=O)OC4CCCC4)cc3)c2N)ccc1F [Example 27, Cyclopentyl(S)-2-(3-{4-[6-Amino-5-(4-fluoro-3-methylbenzoyl)-2-oxo-2H-pyridin-1-yl]phenoxy}propylamino)-4-methylpentanoate] | 100 to 1000 | 100 to 1000 | > 1000 |
| CC(C)C[C@H](NCCCOc1cc(F)c(-n2c(N)c(C(=O)c3ccc(F)cc3F)ccc2=O)c(F)c1)C(=O)OC1CCCC1 [Example 22, Cyclopentyl(S)-2-(3-{4-[6-Amino-5-(2,4-difluorobenzoyl)-2-oxo-2H-pyridin-1-yl]-3,5-difluorophenoxy}propylamino)-4-methyl pentanoate] | < 100 | < 100 | 100 to 1000 |
